Experimental data taken from PMC7961093, “Insights into the dual cleavage activity of the GH16 laminarinase enzyme class on β-1,3 and β-1,4 glycosidic bonds” (The Journal of Biological Chemistry, 2021).

Legend:
SCLam = biological target: T1, SCLam (soil metagenome, UniProt Z9RH19THY1, E147S); assay: isothermal titration calorimetry; assay type: binding; settings: 20 mM sodium phosphate pH 6.5, 20 °C
T1 construct: monomer in asymmetric unit
T1 sequence (Z9RH19THY1 4-269 E147S): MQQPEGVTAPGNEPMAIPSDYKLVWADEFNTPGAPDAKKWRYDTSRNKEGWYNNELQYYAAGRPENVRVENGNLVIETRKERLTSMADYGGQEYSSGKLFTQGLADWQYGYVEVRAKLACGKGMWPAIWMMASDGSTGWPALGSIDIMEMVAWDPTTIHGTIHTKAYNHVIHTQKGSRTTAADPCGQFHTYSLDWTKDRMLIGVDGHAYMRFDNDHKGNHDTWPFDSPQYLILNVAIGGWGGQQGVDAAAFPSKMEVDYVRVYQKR
Text: isothermal titration calorimetry on SCLam

TpLam = biological target: T2, TpLam (Thermotoga petrophila, UniProt A5IL44); assay: capillary zone electrophoresis of hydrolysis products; assay type: biochemical; settings: 5 mM substrate, 10 μM enzyme, 70 °C, overnight
T2 construct: gene Tpet_0899; purified preparation
T2 sequence (A5IL44 18-641): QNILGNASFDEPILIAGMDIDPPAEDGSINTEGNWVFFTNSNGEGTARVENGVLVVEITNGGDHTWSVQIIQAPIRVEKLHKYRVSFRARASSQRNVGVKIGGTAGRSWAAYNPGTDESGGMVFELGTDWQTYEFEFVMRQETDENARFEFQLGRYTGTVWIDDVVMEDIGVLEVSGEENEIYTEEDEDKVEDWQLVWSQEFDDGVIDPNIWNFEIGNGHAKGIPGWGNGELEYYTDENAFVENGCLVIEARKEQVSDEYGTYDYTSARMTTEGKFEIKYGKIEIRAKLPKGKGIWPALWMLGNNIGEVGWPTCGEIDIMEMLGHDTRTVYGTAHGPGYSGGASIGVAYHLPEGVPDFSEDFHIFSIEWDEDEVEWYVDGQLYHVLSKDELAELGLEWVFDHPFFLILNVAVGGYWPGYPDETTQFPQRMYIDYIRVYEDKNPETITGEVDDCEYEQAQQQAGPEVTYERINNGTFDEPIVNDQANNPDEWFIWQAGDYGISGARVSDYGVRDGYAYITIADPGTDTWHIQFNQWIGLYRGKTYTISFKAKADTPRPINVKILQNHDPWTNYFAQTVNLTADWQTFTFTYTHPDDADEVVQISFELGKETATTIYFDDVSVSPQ

[1] = sequential binding model, site 1 (negative subsites)

SMILES | Ka × 10^4 (M^-1) (SCLam; single-site model) | Ka × 10^4 (M^-1) (SCLam; [1]) | also measured
OC[C@H]1O[C@@H](O[C@H]2[C@H](O)[C@@H](O)[C@H](O[C@H]3[C@H](O)[C@@H](O)[C@H](O[C@H]4[C@H](O)[C@@H](CO)OC(O)[C@@H]4O)O[C@@H]3CO)O[C@@H]2CO)[C@H](O)[C@@H](O)[C@@H]1O (stereo partly drawn) [BGB, 1,3-β-D-cellotriosyl-glucose] | 66.7 (±1.4) × 10^4 | – | –
OC[C@H]1O[C@@H](O[C@H]2[C@H](O)[C@@H](O)[C@H](O[C@@H]3[C@@H](O)[C@H](O[C@H]4[C@H](O)[C@@H](O)C(O)O[C@@H]4CO)O[C@H](CO)[C@H]3O)O[C@@H]2CO)[C@H](O)[C@@H](O)[C@@H]1O (stereo partly drawn) [BGC, 1,3-β-D-cellobiosyl-cellobiose] | 0.59 (±0.07) × 10^4 | – | –
OC[C@H]1O[C@@H](O[C@H]2[C@H](O)[C@@H](O)[C@H](O[C@H]3[C@H](O)[C@@H](O)[C@H](O[C@H]4[C@H](O)[C@@H](O)[C@H](O[C@H]5[C@H](O)[C@@H](O)C(O)O[C@@H]5CO)O[C@@H]4CO)O[C@@H]3CO)O[C@@H]2CO)[C@H](O)[C@@H](O)[C@@H]1O (some centres unmarked) [C5, cellopentaose] | – | – | capillary zone electrophoresis of hydrolysis products (TpLam): we also evaluated the activity of the TpLam from Thermotoga petrophila
OC[C@H]1O[C@@H](O[C@H]2[C@H](O)[C@@H](O)[C@H](O[C@H]3[C@H](O)[C@@H](O)[C@H](O[C@H]4[C@H](O)[C@@H](O)[C@H](O[C@H]5[C@H](O)[C@@H](O)[C@H](O[C@H]6[C@H](O)[C@@H](O)C(O)O[C@@H]6CO)O[C@@H]5CO)O[C@@H]4CO)O[C@@H]3CO)O[C@@H]2CO)[C@H](O)[C@@H](O)[C@@H]1O (some centres unmarked) [C6, cellohexaose] | – | 9.7 (±0.56) × 10^4 | –
OC[C@H]1O[C@@H](O[C@@H]2[C@@H](O)[C@H](O[C@@H]3[C@@H](O)[C@H](O[C@@H]4[C@@H](O)[C@H](O[C@@H]5[C@@H](O)[C@H](O[C@H]6[C@H](O)[C@@H](CO)OC(O)[C@@H]6O)O[C@H](CO)[C@H]5O)O[C@H](CO)[C@H]4O)O[C@H](CO)[C@H]3O)O[C@H](CO)[C@H]2O)[C@H](O)[C@@H](O)[C@@H]1O (some centres unmarked) [L6, laminarihexaose] | – | 17.8 (±2.2) × 10^4 | –
